Results taken from patent US10195155B2, “Drug carrier for tumor-specific targeted drug delivery and use thereof” (Institute of Biophysics, Chinese Academy of Sciences, priority 2014, dated 2019).

Key:
[1] = Maximal tolerated dosage in healthy mice, single administration; settings: HFn-Dox by Dox equivalent
Description: In the therapy of a cancer patient, the dosage of administration and the number of administration were very important. However, bound by toxic side effects of chemotherapeutic drugs, the therapy of cancer usually became administration in a small amount at a high frequency.

HT-29 implanted tumor = assay: Anti-tumor pharmacodynamics in nude mice bearing HT-29 implanted tumor; settings: single tail vein dose
Description: 40 female BALB/c nude mice bearing HT-29 implanted tumor were randomly divided into five groups. When the volume of the implanted tumor was up to about 100 square millimeters, drugs were injected to all of tumor-bearing mice through the tail vein. […] Since the maximal tolerated dosage of mice to free Doxorubicin was 5 mg/kg mouse body weight, the administration dosage of the free Doxorubicin group was 5 mg/kg mouse body weight. […] Measurements of body weights and tumors of mice were three times per week.

**Q.** With `COc1cccc2c1C(=O)c1c(O)c3c(c(O)c1C2=O)C[C@@](O)(C(=O)CO)C[C@@H]3O[C@H]1C[C@H](N)[C@H](O)[C@H](C)O1` [free Doxorubicin, Doxorubicin] as the compound, how does the maximal tolerated dosage [1] read?
**A.** The maximal tolerated dosage was 5 mg/kg.

**Q.** And the “average survival time of tumor-bearing mice” value (HT-29 implanted tumor; free Dox 5 mg/kg, Doxil 20 mg/kg)?
**A.** Its value is 18 days.

**Q.** What about the tumor growth inhibition (HT-29 implanted tumor; free Doxorubicin 5 mg/kg, HFn-Dox and Doxil 20 mg/kg, 40-day window) of the same compound?
**A.** The tumor growth inhibition was “almost no inhibitory effect”.
